The results in this text go back to patent publication US5017573A, “Indazole-3-carboxylic acid derivatives” (Dainippon Pharmaceutical Co., Ltd., priority 1988, dated 1991).

The test system of data set [1] is cisplatin-induced vomiting in ferrets. Description: Effect on cisplatin-induced vomiting in ferrets. The class given is in vivo, ferret. The settings on record: male ferrets; 0.03 mg/kg i.v. twice (30 minutes before and 45 minutes after cisplatin 10 mg/kg); emetic episodes for 3 hours. As for the experimental part: Effect on cisplatin-induced vomiting in ferrets and acute toxicity in mice
Male ferrets (Marshall Lab., U.S.A.) weighing approximately 1 kg were used. For intravenous injection, a cannule was implanted in the cervical vein under pentobarbital anethesia. The experiments were started 3 and 4 days after the operation. Saline (2 ml/kg) as a control group and a dose (0.03 mg/kg) of a test compound as a treated group were administered twice, i.e., 30 minutes before and 45 minutes after administratin of 10 mg/kg of cisplatin (Sigma, U.S.A) dissolved in saline (3 ml/kg). The number of emetic episodes for 3 hours after administration of cisplatin was recorded, and the inhibition rate of the test compound was calculated as follows. [formula]
All test compounds were administered intravenously.

The subject of data set [2] is serotonin 3 (5--HT3) receptor. The data set is described as follows: Effect on Von Bezold-Jarisch reflex in rats (serotonin 3 receptor antagonist activity). The class given is in vivo, rat. The following applies: male Wistar or SD rats, anesthetized; test compound 1 μg/kg i.v. 3 minutes before 2-methylserotonin (10-30 μg/kg i.v.). How it is done: Effect on Von Bezold-Jarisch reflex in rats
(Serotonin 3 receptor antagonist activity)
The test was carried out substantially by the method of Fozard et al. [cf. Arch. Pharmacology, 326, 36-44 (1984)]. Male Wistar rats weighing 250-350 g or male SD rats weighing 300-400 g were anesthetized with urethane (1.5 g/kg, interraperitoneal) and placed on their back. An electrocardiogram (lead II) and a heart rate on the animals were recorded on an inkwriting oscillograph via a biophysical amplifier and a pulse rate tachomether, respectively. […] After stable responses were obtained following repeated administration of 2-methylserotonin at 15-minute intervals, the test compound (1 μg/kg) was administered intravenously 3 minutes before administration of 2-methylserotonin. The inhibition rate of the test compound was calculated as follows. [formula]

A further data set relates to mice. The data set is described as follows: Acute toxicity in mice. The class given is in vivo, mouse. The following applies: male Std-ddY mice; 100 mg/kg i.p.; mortality observed for 7 days. As for the experimental part:
An acute toxicity test was performed using male Std-ddY mice weighing 25-30 g. Test compounds dissolved or suspended in 0.5 % tragacanth solution were administered intraperitoneally.

Regarding `CN1CCN(Cc2cccnc2)CC(NC(=O)c2n[nH]c3ccccc23)C1` (stereo not shown) [Example 16, N-[1-(3-pyridylmethyl)-4-methylhexahydro-1H-1,4-diazepin-6-yl]-1H-indazole-3-carboxamide], in data set [1], the “Inhibition of emetic episodes in ferrets, inhibition rate (%)” value (“Inhibition of emetic episodes … (%)” below) was 82%. The “Inhibition rate (%) of Von Bezold-Jarisch reflex” value in data set [2] is on record as 85%. Also, the “Acute toxicity in mice (number of dead animals/number of animals used)” value in the data set with mice was 0/5.
As to `CC1CN(Cc2ccccc2)CC(NC(=O)c2n[nH]c3ccccc23)CN1C` (single isomer, unassigned) [Example 67, N-(1-benzyl-3,4-dimethylhexahydro-1H-1,4-diazepin-6-yl)-1H -indazole-3-carboxamide], the “Inhibition rate (%) of Von Bezold-Jarisch reflex” value in data set [2] stood at 72%.
Still for that read-out and setting: with `Cc1ccc(CN2CCN(C)CC(NC(=O)c3n[nH]c4ccccc34)C2)cc1` (stereo not shown) [Example 3] the figure was 92%.
For `CN1CCN(Cc2ccccc2)CC(NC(=O)c2nn(C)c3ccccc23)C1` (stereo not shown) [Example 33, N-(1-benzyl-4-methylhexahydro-1H-1,4-diazepin-6-yl)-1-methyl-1H-indazole-3-carboxamide], the “Inhibition of emetic episodes … (%)” value in data set [1] was 44%. Further, the “Inhibition rate (%) of Von Bezold-Jarisch reflex” value in data set [2] worked out at 96%. For the same molecule, in the data set on mice, the “Acute toxicity in mice (number of dead animals/number of animals used)” value is on record as 2/5.
Taken in the same sequence, the figures for `CN1CCN(Cc2ccc(F)cc2)CC(NC(=O)c2n[nH]c3ccccc23)C1` (stereo not shown) [Example 8] were 71%, 77% and 0/5.
The like results for `CCC(=O)n1nc(C(=O)NC2CN(C)CCN(Cc3ccccc3)C2)c2ccccc21` (stereo not shown) [Example 53, N-(1-benzyl-4-methylhexahydro-1H-1,4-diazepin-6-yl)-1-propionyl-1H-indazole-3-carboxamide] were, in that order, 29%, 83% and 1/5.
As to `CN1CCN(Cc2cccc(F)c2)CC(NC(=O)c2n[nH]c3ccccc23)C1` (stereo not shown) [Example 7], in data set [2], the “Inhibition rate (%) of Von Bezold-Jarisch reflex” value stood at 84%.
Same read-out and setting: with `C=CCn1nc(C(=O)NC2CN(C)CCN(Cc3ccccc3)C2)c2ccccc21` (stereo not shown) [Example 48] the figure was 79%.
As to `Cc1cccc(CN2CCN(C)CC(NC(=O)c3n[nH]c4ccccc34)C2)c1` (stereo not shown) [1(b), N-[1-(3-methylbenzyl)4-methylhexahydro-1H-1,4-diazepin-6-yl]-1H-indazole-3-carboxamide], the “Inhibition rate (%) of Von Bezold-Jarisch reflex” value in data set [2] is on record as 83%.
The same measure, in the same setting: with `CN1CCN(Cc2cc(F)cc(F)c2)CC(NC(=O)c2n[nH]c3ccccc23)C1` (stereo not shown) [Example 23] the figure was 86%; with `CN1CCN(Cc2ccccc2F)CC(NC(=O)c2n[nH]c3ccccc23)C1` (stereo not shown) [Example 6], 75%.
Still for that read-out and setting: with `CN1CCN(Cc2ccccc2C#N)CC(NC(=O)c2n[nH]c3ccccc23)C1` (stereo not shown) [Example 11, N-[1-(2-cyanobenzyl)-4-methylhexahydro-1H-1,4-diazepin-6-yl]-1H-indazole-3-carboxamide] the figure was 95%.
Same read-out and setting: with `COc1ccc(CN2CCN(C)CC(NC(=O)c3n[nH]c4ccccc34)C2)cc1` (stereo not shown) [Example 5] the figure was 78%; with `CC(=O)n1nc(C(=O)NC2CN(C)CCN(Cc3ccccc3)C2)c2ccccc21` (stereo not shown) [Example 52, N-(1-benzyl-4-methylhexahydro-1H-1,4-diazepin-6-yl)-1-acetyl-1H-indazole-3-carboxamide], 89%.
As for `Cc1cccc(CN2CCN(C)CC(NC(=O)c3n[nH]c4ccccc34)C2)c1` (stereo not shown) [Example 1(a), N-[1-(3-methylbenzyl)4-methylhexahydro-1H-1,4-diazepin-6-yl]-1H-indazole-3-carboxamide], the “Inhibition of emetic episodes … (%)” value in data set [1] was determined as 89%. Also, the “Inhibition rate (%) of Von Bezold-Jarisch reflex” value in data set [2] is given as 82%. For the same molecule, in the data set with mice, the “Acute toxicity in mice (number of dead animals/number of animals used)” value is 1/5.
For `CCCCn1nc(C(=O)NC2CN(C)CCN(Cc3ccccc3)C2)c2ccccc21` (stereo not shown) [Example 46], the “Inhibition rate (%) of Von Bezold-Jarisch reflex” value in data set [2] was determined as 70%.
Turning to `CN1CCN(Cc2ccncc2)CC(NC(=O)c2n[nH]c3ccccc23)C1` (stereo not shown) [Example 17], the “Inhibition of emetic episodes … (%)” value in data set [1] turned out to be 62%. In data set [2], the “Inhibition rate (%) of Von Bezold-Jarisch reflex” value is listed as 91%. Moreover, the “Acute toxicity in mice (number of dead animals/number of animals used)” value in the data set on mice is recorded as 1/5.
For the molecule `CN1CCN(Cc2ccccc2)CC(NC(=O)c2n[nH]c3ccccc23)C1` (stereo not shown) [Example 32, N-(1-benzyl-4-methylhexahydro-1H-1,4-diazepin-6-yl)-1H-indazole-3-carboxamide], in data set [1], the “Inhibition of emetic episodes … (%)” value amounted to 62%. Also, the “Acute toxicity in mice (number of dead animals/number of animals used)” value in the data set with mice is 0/5.
With `CC1CN(C)CC(NC(=O)c2n[nH]c3ccccc23)CN1Cc1ccccc1` (single isomer, unassigned) [Example 69, N-(1-benzyl-2,4-dimethylhexahydro-1H-1,4-diazepin-6-yl)-1H -indazole-3-carboxamide], in data set [2], the “Inhibition rate (%) of Von Bezold-Jarisch reflex” value is recorded as 90%.
Still for that read-out and setting: with `CN1CCN(Cc2ccc(C#N)cc2)CC(NC(=O)c2n[nH]c3ccccc23)C1` (stereo not shown) [Example 13] the figure was 83%; with `CN1CCN(Cc2ccc(Br)cc2)CC(NC(=O)c2n[nH]c3ccccc23)C1` (stereo not shown) [Example 10], 82%.
